Test results: the OligoGym collection
Bases are written 5' to 3'; sugars and linkages follow in the same order, as letters with counts (s phosphorothioate, o phosphodiester; PS: all linkages phosphorothioate). The collection does not say whether C is 5-methylated. l = locked nucleic acid (LNA); d = 2'-deoxy (DNA)

target: Tau; assay: rat primary cortical neurons, FLIPR, 25 uM ASO

Sequence | calcium oscillation score
CTCCAATTTTAAACTTA (sugars l4 d9 l4, PS) | 66.5 % of control
TTGGAAAGATGAAATTTGCT (sugars l3 d14 l3, PS) | 1.45 % of control
TTGAAGTCCCGAGCCAAAGC (sugars l3 d14 l3, PS) | 0 % of control
TCCACAAACCAACTCAAC (sugars l4 d12 l2, PS) | 95.9 % of control
TCAATTTCCCTGTTAAT (sugars l4 d11 l2, PS) | 53.4 % of control
CAGAGCTGGGTGGTGTCTTT (sugars l3 d14 l3, PS) | 0 % of control
CCAGACACCACTGGCGACTT (sugars l3 d14 l3, PS) | 128 % of control
GTCTTGGCTTTGGCGT (sugars l3 d10 l3, PS) | 20.9 % of control
ACCCATTATCTGCTCC (sugars l3 d11 l2, PS) | 50.9 % of control
CCTGTCTCAAACACCTA (sugars l2 d12 l3, PS) | 60.6 % of control
TTACACCATCCAAGTCA (sugars l4 d11 l2, PS) | 75.5 % of control
CCAGCGTGATCTTCCA (sugars l3 d10 l3, PS) | 98 % of control
CCCATTCAGATCTATCC (sugars l2 d13 l2, PS) | 102 % of control
GCGGAAGGTCAGCTTG (sugars l3 d10 l3, PS) | 25.9 % of control
CTTCTCAGCCACTGTT (sugars l3 d10 l3, PS) | 67.9 % of control
CACCTCCTGGTTTATG (sugars l3 d10 l3, PS) | 65.3 % of control
TTGGGTGGAGTACGGA (sugars l3 d10 l3, PS) | 0 % of control
GGGCGAGTCTACCATGTCGA (sugars l3 d14 l3, PS) | 66 % of control
TTAATTCATAAATGACTATA (sugars l3 d14 l3, PS) | 58.4 % of control
TTAACCGAACTGCGAG (sugars l3 d10 l3, PS) | 46.1 % of control
TTCTTCCTTTGTAATTC (sugars l4 d11 l2, PS) | 43.5 % of control
TGGCGTTCTCGCGG (sugars l3 d8 l3, PS) | 93.9 % of control

Sequence | calcium oscillation score
TTCTTCATTCTTGCCC (sugars l2 d12 l2, PS) | 15.5 % of control
TCCAAGTCAATGCCTGGCTT (sugars l3 d14 l3, PS) | 18.1 % of control
CCAAATTCCTCATAATCCA (sugars l2 d15 l2, PS) | 75 % of control
CAGCTTGTGGGTTTCAATCT (sugars l3 d14 l3, PS) | 0 % of control
AGGGACCCAATCTTCG (sugars l3 d10 l3, PS) | 73.3 % of control
GATATTGTCCAGGGACCCAA (sugars l3 d14 l3, PS) | 9.97 % of control
CGTGATCTTCCATCAC (sugars l3 d10 l3, PS) | 127 % of control
GGAGTGCTCTTAGCATCAGA (sugars l3 d14 l3, PS) | 14.8 % of control
GCATCAGAGGTTTCAG (sugars l3 d10 l3, PS) | 0 % of control
CAGTCTTTATTAACACT (sugars l3 d10 l4, PS) | 50.7 % of control
TATTTCCAAATTCACTTTTA (sugars llldldddddddddlddlll, PS) | 125 % of control
CAACTCAAACACTAACTT (sugars l4 d10 l4, PS) | 64.5 % of control
CAGTCTTTATTAACAC (sugars l4 d8 l4, PS) | 54 % of control
TGGAGCCGATCTTGGACTTG (sugars l3 d14 l3, PS) | 0 % of control
GGTCTGAGCTACCAGG (sugars l3 d10 l3, PS) | 14.8 % of control
CCTAATGAGCCACACT (sugars l3 d10 l3, PS) | 92.6 % of control
CAAGAGGCACAAGT (sugars l3 d8 l3, PS) | 36.2 % of control
TACAGTCATTTCATTAC (sugars l4 d9 l4, PS) | 64.9 % of control
TAGTCACTCTGGTGA (sugars l3 d9 l3, PS) | 78.1 % of control
CATCTCTCTAGACATCTC (sugars l2 d13 l3, PS) | 64.6 % of control
GGTTTATGATGGATGTTGCC (sugars l3 d14 l3, PS) | 26.6 % of control
